Consider 22 compounds from patent publication US8124641B2, “Aminotetrahydroindazoloacetic acids” (Hoffmann-La Roche Inc., priority 2008, dated 2012).

Usually IC50 stands for the concentration at which inhibition is half-maximal.

In the experiment the target is T1, human CRTH2 (Homo sapiens, UniProt Q9Y5Y4).
T1 construct: expressed in transfected cells
T1 sequence (Q9Y5Y4 1-395): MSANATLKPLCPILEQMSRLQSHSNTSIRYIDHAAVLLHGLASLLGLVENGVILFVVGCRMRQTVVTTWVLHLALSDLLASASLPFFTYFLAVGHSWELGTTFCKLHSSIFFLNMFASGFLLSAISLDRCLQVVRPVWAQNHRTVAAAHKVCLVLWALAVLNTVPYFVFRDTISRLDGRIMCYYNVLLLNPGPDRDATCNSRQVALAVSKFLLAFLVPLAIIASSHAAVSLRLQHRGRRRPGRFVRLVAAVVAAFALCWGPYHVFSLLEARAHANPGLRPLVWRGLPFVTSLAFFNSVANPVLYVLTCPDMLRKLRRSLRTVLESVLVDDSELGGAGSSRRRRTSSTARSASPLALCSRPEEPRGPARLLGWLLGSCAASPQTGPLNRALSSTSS
Put plainly: Human CRTH2 Receptor Binding Assay (whole cell, [3H]ramatroban competition). The settings on record: CHO-K1 cells stably expressing human CRTH2 and G-alpha16; 20 nM [3H]ramatroban; 1 hour, room temperature. An excerpt:
A whole cell receptor binding assay using [^3H]ramatroban as the competing radioactive ligand was employed to evaluate the compound binding activity to human CRTH2. The radioactive ligand [^3H]ramatroban was synthesized according to Sugimoto et. al. (Eur. J. Pharmacol. 524, 30-37, 2005) to a specific activity of 42 Ci/mmol.
A cell line stably expressing human CRTH2 was established by transfecting CHO-K1 cells with two mammalian expression vectors that harbored human CRTH2 and G-alpha16 cDNAs, respectively, using FuGene® 6 transfection reagent (from Roche). Stable clones expressing CRTH2 were selected by staining each clone with BM16 (BD Pharmingen™ from BD Biosciences, a division of Becton, Dickinson and Company), which is a rat monoclonal antibody to human CRTH2. The cells were maintained as monolayer cultures in Ham's F-12 medium containing 10% fetal bovine serum, 100 units/mL penicillin, 100 μg/mL streptomycin, 2 mM glutamine, 0.5 mg/mL G418 (geneticin) for CRTH2, and 0.2 mg/mL hygromycin-B (for G-alpha 16). For whole cell receptor binding assay, the monolayer cells were rinsed once with PBS (phosphate buffered saline), dissociated using ethylenediaminetetraacetate (Versene™ EDTA from Lonza Inc.), and suspended in PBS containing 10 mM MgCl2 and 0.06% BSA (bovine serum albumin) at 1.5×10^6 cells/mL.
The binding reactions (0.2 mL) were performed in 96-well plates at room temperature in PBS containing 1.5×10^5 cells, 10 mM MgCl2, 0.06% BSA, 20 nM [^3H]ramatroban, and test compound at various concentrations. After 1 hour of binding reactions, the cells were harvested on GF™/B filter microplates (microtiter plates with embedded glass fiber from PerkinElmer, Inc.) and washed 5 times with PBS using a Filtermate™ Harvester (a cell harvester that harvests and washes cells from microplates from PerkinElmer, Inc.). The radioactivities bound to the cells were determined using a microplate scintillation counter (TopCount® NXT, from PerkinElmer, Inc.) after adding 50 μL of Microscint™ 20 scintillation fluid (from PerkinElmer, Inc.) to each well of the filter plates. The radioactivity from non-specific binding was determined by replacing compound with 10 μM of 15(R)-15-methyl PGD2 (from Cayman Chemical Company) in the reaction mixtures. The radioactivity bound to the cells in the absence of compound (total binding) was determined by replacing compound with 0.25% of DMSO (dimethyl sulfoxide) in the reaction mixture. Specific binding data were obtained by subtracting the radioactivity of non-specific binding from each binding data.
The IC50 value is defined as the concentration of the tested compound that is required for 50% inhibition of total specific binding. In order to calculate the IC50 value, the percent inhibition data were determined for 7 concentrations for each compound. The percent inhibition for a compound at each concentration was calculated according to the following formula, [1−(specific binding in the presence of compound)/(total specific binding)]×100. The IC50 value was then obtained by fitting the percent inhibition data to a sigmoidal dose-response (4 parameter logistic) model in the XLfit® software Excel add-in program [from ID Business Solutions Ltd., model 205, where F(x)=(A+(B−A)/(1+((C/x)^D)))].
Take `CN([C@@H]1CCCc2c1cnn2CCC(=O)O)S(=O)(=O)c1cc(C(F)(F)F)cc(C(F)(F)F)c1` [Example 2-8a, 3-{(R)-4-[(3,5-Bis-trifluoromethyl-benzenesulfonyl)-methyl-amino]-4,5,6,7-tetrahydro-indazol-1-yl}-propionic acid]: the IC50 was 43.4 nM.

As for `CCOc1cc(C(F)(F)F)cc(S(=O)(=O)NC2CCCc3c2cnn3CC(=O)O)c1` (stereo not shown) [Example 3-1a, [4-(3-Ethoxy-5-trifluoromethyl-benzenesulfonylamino)-4,5,6,7-tetrahydro-indazol-1-yl]-acetic acid], the IC50 turned out to be 145 nM.

As to `CCOc1ncc(S(=O)(=O)NC2CCCc3c2cnn3CC(=O)O)cc1Br` (stereo not shown) [Example 3-2a, [4-(5-Bromo-6-ethoxy-pyridine-3-sulfonylamino)-4,5,6,7-tetrahydro-indazol-1-yl]-acetic acid], the IC50 is 370 nM.

Consider `O=C(O)Cn1ncc2c1CCCC2NS(=O)(=O)c1cnc(OC2CCCC2)c(Br)c1` (stereo not shown) [Example 3-3a, [4-(5-Bromo-6-cyclopentyloxy-pyridine-3-sulfonylamino)-4,5,6,7-tetrahydro-indazol-1-yl]-acetic acid], for which the IC50 was 10.3 nM.

For the compound `CC(C)Oc1cc(C(F)(F)F)cc(S(=O)(=O)NC2CCCc3c2cnn3CC(=O)O)c1` (stereo not shown) [Example 3-4a, [4-(3-Isopropoxy-5-trifluoromethyl-benzenesulfonylamino)-4,5,6,7-tetrahydro-indazol-1-yl]-acetic acid], the IC50 came to 194 nM.

Take `CN([C@@H]1CCCc2c1cnn2CC(=O)O)S(=O)(=O)c1ccc(OC2CCCC2)c(Cl)c1` [Example 4-1a, {(R)-4-[(3-Chloro-4-cyclopentyloxy-benzenesulfonyl)-methyl-amino]-1-4,5,6,7-tetrahydro-indazol-1-yl}-acetic acid]: the IC50 amounted to 99.2 nM.

Turning to `CN([C@@H]1CCCc2c1cnn2CC(=O)O)S(=O)(=O)c1cnc(OC2CCC2)c(Br)c1` [Example 4-2a, {(R)-4-[(5-Bromo-6-cyclobutoxy-pyridine-3-sulfonyl)-methyl-amino]-4,5,6,7-tetrahydro-indazol-1-yl}-acetic acid], the IC50 amounted to 39.1 nM.

In the case of `CC(C)Oc1ncc(S(=O)(=O)N(C)[C@@H]2CCCc3c2cnn3CC(=O)O)cc1Br` [Example 4-3a, {(R)-4-[(5-Bromo-6-isopropoxy-pyridine-3-sulfonyl)-methyl-amino]-4,5,6,7-tetrahydro-indazol-1-yl}-acetic acid], the IC50 came to 37.2 nM.

`CN([C@@H]1CCCc2c1cnn2CC(=O)O)S(=O)(=O)c1cnc(OC2CCOCC2)c(Br)c1` [Example 4-4a, ((R)-4-{[5-Bromo-6-(tetrahydro-pyran-4-yloxy)-pyridine-3-sulfonyl]-methyl-amino}-4,5,6,7-tetrahydro-indazol-1-yl)-acetic acid] yielded an IC50 of 53.9 nM.

`CS(=O)(=O)c1cc(C(F)(F)F)cc(S(=O)(=O)N[C@@H]2CCCc3c2cnn3CC(=O)O)c1` [Example 5-1a, [(R)-4-(3-Methanesulfonyl-5-trifluoromethyl-benzenesulfonylamino)-4,5,6,7-tetra-hydro-indazol-1-yl]-acetic acid] gave an IC50 of 3.1 nM.

With `CN([C@@H]1CCCc2c1cnn2CC(=O)O)S(=O)(=O)c1cc(C(F)(F)F)cc(S(C)(=O)=O)c1` [Example 6-1a, {(R)-4-[(3-Methanesulfonyl-5-trifluoromethyl-benzenesulfonyl)-methyl-amino]-4,5,6,7-tetrahydro-indazol-1-yl}-acetic acid], the IC50 turned out to be 2.5 nM.

Compound `CCS(=O)(=O)c1cc(C(F)(F)F)cc(S(=O)(=O)N[C@@H]2CCCc3c2cnn3CC(=O)O)c1` [Example 7-1a, [(R)-4-(3-Ethanesulfonyl-5-trifluoromethyl-benzenesulfonylamino)-4,5,6,7-tetrahydro-indazol-1-yl]-acetic acid] had an IC50 of 2.6 nM.

For `O=C(O)Cn1ncc2c1CCC[C@H]2NS(=O)(=O)c1cc(C(F)(F)F)cc(S(=O)(=O)C2CCCC2)c1` [Example 7-2a, [(R)-4-(3-Cyclopentane-sulfonyl-5-trifluoromethyl-benzenesulfonylamino)-4,5,6,7-tetrahydro-indazol-1-yl]-acetic acid], the IC50 worked out at 2.9 nM.

Compound `CC[S+]([O-])c1cc(C(F)(F)F)cc(S(=O)(=O)N(C)[C@@H]2CCCc3c2cnn3CC(=O)O)c1` (stereo partly drawn) [Example 8-1a, {(R)-4-[(3-Ethanesulfinyl-5-trifluoromethyl-benzenesulfonyl)-methyl-amino]-4,5,6,7-tetrahydro-indazol-1-yl}-acetic acid] came in with an IC50 of 3.3 nM.

Regarding `CN([C@@H]1CCCc2c1cnn2CC(=O)O)S(=O)(=O)c1cc(SC2CCCC2)cc(C(F)(F)F)c1` [Example 9-1a, {(R)-4-[(3-Cyclopentylsulfanyl-5-trifluoromethyl-benzenesulfonyl)-methyl-amino]-4,5,6,7-tetrahydro-indazol-1-yl}-acetic acid], the IC50 amounted to 12.6 nM.

For the compound `CCS(=O)(=O)c1cc(C(F)(F)F)cc(S(=O)(=O)N(C)[C@@H]2CCCc3c2cnn3CC(=O)O)c1` [Example 10-1a, {(R)-4-[(3-Ethanesulfonyl-5-trifluoromethyl-benzenesulfonyl)-methyl-amino]-4,5,6,7-tetrahydro-indazol-1-yl}-acetic acid], the IC50 stood at 2.5 nM.

`CN([C@@H]1CCCc2c1cnn2CC(=O)O)S(=O)(=O)c1cc(C(F)(F)F)cc(S(=O)(=O)C2CCCC2)c1` [Example 10-2a, {(R)-4-[(3-Cyclopentanesulfonyl-5-trifluoromethyl-benzenesulfonyl)-methyl-amino]-4,5,6,7-tetrahydro-indazol-1-yl}-acetic acid] showed an IC50 of 2.9 nM.

Take `CC(C)S(=O)(=O)c1cc(C(F)(F)F)cc(S(=O)(=O)N(C)[C@@H]2CCCc3c2cnn3CC(=O)O)c1` [Example 10-3a, ((R)-4-{Methyl-[3-(propane-2-sulfonyl)-5-trifluoromethyl-benzenesulfonyl]-amino}-4,5,6,7-tetrahydro-indazol-1-yl)-acetic acid]: the IC50 is 2.1 nM.

On to `CN([C@@H]1CCCc2c1cnn2CC(=O)O)S(=O)(=O)c1cc(C(F)(F)F)cc(S(=O)(=O)C(C)(C)C)c1` [Example 10-4a, ((R)-4-{Methyl-[3-(2-methyl-propane-2-sulfonyl)-5-trifluoromethyl-benzenesulfonyl]-amino}-4,5,6,7-tetrahydro-indazol-1-yl)-acetic acid], for which the IC50 stood at 4.7 nM.

Take `CC(C)S(=O)(=O)c1cc(C(F)(F)F)cc(S(=O)(=O)N(C)[C@@H]2CCCc3c2cnn3CCC(=O)O)c1` [Example 10-5a, 3-((R)-4-{Methyl-[3-(propane-2-sulfonyl)-5-trifluoromethyl-benzenesulfonyl]-amino}-4,5,6,7-tetrahydro-indazol-1-yl)-propionic acid]: the IC50 was determined as 2.4 nM.

The compound `CN([C@@H]1CCCc2c1cnn2CCC(=O)O)S(=O)(=O)c1cc(C(F)(F)F)cc(S(=O)(=O)C2CCCC2)c1` [Example 10-6a, 3-{(R)-4-[(3-Cyclopentanesulfonyl-5-trifluoromethyl-benzenesulfonyl)-methyl-amino]-4,5,6,7-tetrahydro-indazol-1-yl}-propionic acid] gave an IC50 of 3.3 nM.

In turn, `CN([C@@H]1CCCc2c1cnn2CCC(=O)O)S(=O)(=O)c1cc(C(F)(F)F)cc(S(=O)(=O)C(C)(C)C)c1` [Example 10-7a, 3-((R)-4-{Methyl-[3-(2-methyl-propane-2-sulfonyl)-5-trifluoromethyl-benzenesulfonyl]-amino}-4,5,6,7-tetrahydro-indazol-1-yl)-propionic acid] came in with an IC50 of 12.5 nM.
